Where two headings read alike, the source gives them in different places.
Assays:
B16 melanoma = test: MTT cytotoxicity assay, B16; type: cell-based, mouse; details: 72 hours (TCS50 in the method)
From the text: (§1) One of the parameters used as the basis for colorimetric assays is the metabolic activity of viable cells. For example, a microtiter assay, which uses the tetrazolium salt MTT, is now widely used to quantitate cell proliferation and cytotoxicity. For instance, this assay is used in drug screening programs and in chemosensitivity testing. Because only metabolically active cells cleave tetrazolium salts, these assays detect viable cells exclusively. In the case of MTT assay, yellow soluble tetrazolium salt is reduced to coloured water-insoluble formazan salt. After it is solubilized, the formazan formed can easily and rapidly be quantified in a conventional ELISA plate reader at 570 nm (maximum absorbance). The quantity of reduced formazan corresponds to number of vital cells in the culture. Human T-lymphoblastic leukemia cell line CEM; promyelocytic HL-60 and monocytic U937 leukemias; breast carcinoma cell lines MCF-7, BT549, MDA-MB-231; glioblastoma U87MG cells; cervical carcinoma cells HELA; sarcoma cells U20S and Saos2; hepatocellular carcinoma HepG2; mouse immortalized bone marrow macrophages B2.4 and B10A.4; P388D1 and L1210 leukemia; B16 and B16F10 melanomas were used for routine screening of the compounds according to the invention. The cells were maintained in Nunc/Corning 80 cm^2 plastic tissue culture flasks and cultured in cell culture medium (DMEM with 5 g/l glucose, 2 mM glutamine, 100 U/ml penicillin, 100 μg/ml streptomycin, 10% fetal calf serum and sodium bicarbonate).
(§2) The cell suspensions that were prepared and diluted according to the particular cell type and the, expected target cell density (2500-30000 cells per well based on cell growth characteristics) were added by pipette (80 μl) into 96-well microtiter plates. Inoculates were allowed a pre-incubation period of 24 hours at 37° C. and 5% CO2 for stabilisation. Four-fold dilutions of the intended test concentration were added at time zero in 20 μl aliquots to the microtiter plate wells. Usually, test compound was evaluated at six 4-fold dilutions. In routine testing, the highest well concentration was 266.7 μM, but it can be the matter of change dependent on the agent. All drug concentrations were examined in duplicates. Incubations of cells with the test compounds lasted for 72 hours at 37° C., in 5% CO2 atmosphere and 100% humidity. At the end of incubation period, the cells were assayed by using the MTT. Ten microliters of the MTT stock solution were pipetted into each well and incubated further for 1-4 hours. After this incubation period, formazan was solubilized by addition of 100 μl/well of 10% SDS in water (pH=5.5) followed by further incubation at 37° C. overnight. The optical density (OD) was measured at 540 nm with the Labsystem iEMS Reader MF (UK). The tumour cell survival (TCS) was calculated using the following equation: TCS=(ODdrug exposed well/mean ODcontrol wells)×100%. The TCS50 value, the drug concentration lethal to 50% of the tumour cells, was calculated from the obtained dose response curves.
(§3) The cytoxicity of novel compounds was tested on panel of cell lines of different histogenetic and species origin (Table 7). Equal activities were found in all tumour cell lines tested. […] Importantly, this observation distinguishes the purine derivatives of the invention from flavopiridol and related compounds, as their biological activity is dependent on p53 status.

[1] = system: T-lymphoblastic leukemia cell line CEM; test: MTT cytotoxicity assay, CEM; type: cell-based, human; details: 72 hours (TCS50 in the method)
From the text: as §1, §2, §3

normal human lymphocytes = test: concanavalin A induced lymphocyte proliferation, [3H]-TdR incorporation; type: cell-based; details: 72 hours, read-out: ED50 (the source's name)
Procedure: Human heparinized peripheral blood was obtained from healthy volunteers by cubital vein punction. The blood was diluted in PBS (1:3) and mononuclear cells were separated by centrifugation in Ficoll-Hypaque density gradient (Pharmacia, 1.077 g/ml) at 2200 rpm for 30 minutes. Following centrifugation, lymphocytes were washed in PBS and resuspended in cell culture medium (RMPI 1640, 2 mM glutamine, 100 U/ml penicillin, 100 μg/ml streptomycin, 10% fetal calf serum and sodium bicarbonate).
The cells were diluted at target density of 1100000 cells/ml and were added by pipette (180 μl) into 96/well microtiter plates. Four-fold dilutions of the intended test concentration were added at time zero in 20 μl aliquots to the microtiter plate wells. Usually, test compound was evaluated at six 4-fold dilutions. In routine testing, the highest well concentration was 266.7 μM. All drug concentrations were examined in duplicates. All wells with exception of unstimulated controls were activated with 50 μl of concanavalin A (25 μg/ml). Incubations of cells with test compounds lasted for 72 hours at 37° C., in 5% CO2 atmosphere and 100% humidity. At the end of incubation period, the cells were assayed by using the [^3H]-TdR:
Cell cultures were incubated with […] (20 μl of stock solution 500 μCi/ml) per well for 6 hours at 37° C. and 5% CO2. The automated cell harvester was used to lyse cells in water and adsorb the DNA onto glass-fiber filters in the format of microtiter plate. The DNA incorporated [^3H]-TdR was retained on the filter while unincorporated material passes through. The filters were dried at room temperature overnight, sealed into a sample bag with 10-12 ml of scintillant. The amount of [^3H]-TdR present in each filter (in cpm) was determined by scintillation counting in a Betaplate liquid scintillation counter. The effective dose of immunosuppressant (ED) was calculated using the following equation: ED=(cpmdrug exposed well/mean cpmcontrol wells)×100%. The EDs50 value, the drug concentration inhibiting proliferation of 50% of lymphocytes, was calculated from the obtained dose response curves.
To evaluate immunosuppressive activity of substituted adenines, their ability to inhibit polyclonal mitogen induced proliferation of normal human lymphocytes was analyzed (Table 8). […] Effective immunosuppressive dose of new derivatives under in vitro conditions was close to 1-20 μM.

IκB-α = IκB-α kinase-inhibitory activity; type: biochemical; details: Table 3
From the text: Modification of 2,6,9-trisubstituted purines by a catechol-like substituent at R6 leads to an increase in cdk inhibitory activity of the tested compounds.

CDC2 = molecular target: T1, CDC2 (Homo sapiens, UniProt P06493); test: p34cdc2 (CDC2) kinase inhibition assay, histone H1 substrate; type: biochemical
T1 construct: made in house; host or cells: Sf9 insect cells, baculovirus co-infection
T1 sequence (P06493 whole entry, species assumed): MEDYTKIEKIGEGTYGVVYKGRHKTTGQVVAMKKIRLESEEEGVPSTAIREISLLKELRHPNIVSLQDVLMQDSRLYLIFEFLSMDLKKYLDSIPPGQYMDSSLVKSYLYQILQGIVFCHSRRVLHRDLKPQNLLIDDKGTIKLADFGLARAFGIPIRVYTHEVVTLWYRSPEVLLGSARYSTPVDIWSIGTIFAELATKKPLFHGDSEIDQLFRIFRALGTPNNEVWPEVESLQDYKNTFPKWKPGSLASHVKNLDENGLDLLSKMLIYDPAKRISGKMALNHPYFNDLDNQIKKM
T1 sequence (P14635 whole entry partner, species assumed): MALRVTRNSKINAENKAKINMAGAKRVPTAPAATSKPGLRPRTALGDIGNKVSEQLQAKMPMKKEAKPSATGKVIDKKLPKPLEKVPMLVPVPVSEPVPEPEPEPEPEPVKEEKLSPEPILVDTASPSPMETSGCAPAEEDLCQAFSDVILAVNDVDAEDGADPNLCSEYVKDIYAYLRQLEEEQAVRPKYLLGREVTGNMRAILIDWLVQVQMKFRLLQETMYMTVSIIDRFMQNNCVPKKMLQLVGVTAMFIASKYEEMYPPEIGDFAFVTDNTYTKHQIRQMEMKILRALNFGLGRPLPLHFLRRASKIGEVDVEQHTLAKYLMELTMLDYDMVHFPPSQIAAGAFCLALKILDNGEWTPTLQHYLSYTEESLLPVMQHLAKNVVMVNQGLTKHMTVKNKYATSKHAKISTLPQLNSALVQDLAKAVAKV

[2] = system: myeloid leukemia KG1 cell line; test: cell growth of KG1 cell line, flow cytometric cell count; details: read-out: KGI IC50
[3] = system: T-lymphocyte leukemia Molt3 cell line; test: cell growth of Molt3 cell line, flow cytometric cell count; type: cell-based, human; details: 96 hours of culture
Procedure: Cell lines: Human leukemic cell lines were obtained from the American Type Culture Collection (ATCC, Rockville, Md., USA). They were cultured in Iscove's Modified Dulbecco's Medium (IMDM) supplemented with 10% heat inactivated fetal calf serum (FCS), 200 U/ml penicillin, 200 μg/ml streptomycin and 1 μg/ml amphotericin B. Cells were cultured in a 5% CO2-95% air fully humidified incubator. For effects on clonogenic output, 1000 cells/well were plated in duplicate in methylcellulose (0.9%), supplemented with 20% FCS and cultured for 14 days.
(§4) Cells were plated at 10000 per well in 200 μl IMDM medium and incubated with 0-50 μM of the compounds of the invention (Table 5), by addition of the drugs directly to the culture medium and incubated at 37° C. for 96 hours. Absolute cell number was determined by addition of a known concentration of Fluoresbrite microspheres (FITC) (Polysciences, Inc.). The absolute number of cells per well was calculated as: {(total number of beads added per well)/(number of beads measured)}×(number of measured cells in the gate of interest). All analyses were performed with a FACScan (BD), using CELLQuest software (Becton Dickinson).
The response of the myeloid leukemia KG1 and T-lymphocyte leukemia Molt3 cell lines to the cytostatic effect of the novel compounds was determined using the above-mentioned standardized bead suspension that was used to determine the absolute cell number by flow cytometric (FCM) measurement. Cells were grown in the presence of increasing concentrations of the compounds of the invention.

[4] = system: PHA-stimulated lymphocytes (PBMC); test: cell number of PHA-stimulated lymphocytes (PBMC), flow cytometry; type: cell-based, human; details: 96 hours, in the presence of IL-2; for CC50: Homo sapiens, Lymphocyte, read-out: Lymphocytes IC50
Procedure: Human peripheral blood mononuclear cells were isolated by density gradient (Ficoll-Hypaque) (LSM, ICN Biomedicals Inc.). PBMC were stimulated with 5 μg/ml phytohemaglutinin A (PHA) (Sigma) during 24-48 hours in IMDM supplemented with 10% FCS (IMDM/10% FCS) at 37° C. After washing off the PHA, PBMC were incubated with interleukin-2 (IL-2) (10 U/ml) (Genzyme).
as §4
The novel compounds were tested for cytotoxicity on PHA-stimulated lymphocytes (PBMC), as one of the normal counterparts of the cell lines. Cells were grown for 96 hours in the presence of IL-2 and different concentrations of the novel compounds and cell number was counted on the flow cytometer.

[5] = Table 5, CDC2 activity in cell free system

| Compound | IC50 (B16 melanoma) [µM] | IC50 [1] [µM] | EC50 (normal human lymphocytes) [µM] | also measured |
| --- | --- | --- | --- | --- |
| CC(C)n1cnc2c(NCc3ccc(O)c(O)c3)nc(NCCO)nc21 | 32 | 35 | – | – |
| CC(C)n1cnc2c(N(C)CCc3ccc(O)c(O)c3)nc(NCCO)nc21 | 26 | 27 | 4 | – |
| CN(CCc1ccc(O)c(O)c1)c1nc(NCCO)nc2c1ncn2C | – | – | – | IC50 (IκB-α): 25.4 µM; IC50 (CDC2; Table 3): 10.2 µM |
| CCCCCCNc1nc(NCc2ccc(O)c(O)c2)c2ncn(C(C)C)c2n1 | 21 | 22 | – | – |
| CCCCCCNc1nc(N(C)CCc2ccc(O)c(O)c2)c2ncn(C(C)C)c2n1 | 32 | 33 | 15 | IC50 (CDC2; Table 3): 2.6 µM |
| CC(C)n1cnc2c(NCc3ccc(O)c(O)c3)nc(NC[C@@H](C)O)nc21 | 41 | 35 | – | – |
| CC(C)n1cnc2c(N(C)CCc3ccc(O)c(O)c3)nc(NC[C@@H](C)O)nc21 | 14 | 13 | 7 | – |
| CC(C)n1cnc2c(NC(CO)c3ccccc3)nc(NC[C@@H](C)O)nc21 (some centres unmarked) | 74.6 | 70 | 23 | – |
| CC(O)CNc1nc(NC(CO)c2ccccc2)c2ncn(C(C)C)c2n1 (centres unmarked) | – | – | – | IC50 (CDC2; Table 3): 0.6 µM |
| CC[C@@H](CO)Nc1nc(NCc2ccc(O)c(O)c2)c2ncn(C(C)C)c2n1 | 53 | 51 | – | – |
| CC[C@@H](CO)Nc1nc(N(C)CCc2ccc(O)c(O)c2)c2ncn(C(C)C)c2n1 | 34 | 36 | 1.8 | – |
| CC[C@@H](CO)Nc1nc(NC(CO)c2ccccc2)c2ncn(C(C)C)c2n1 (some centres unmarked) | 24 | 20 | 14 | – |
| CC(C)n1cnc2c(NCc3ccc(O)c(O)c3)nc(NC[C@H](C)O)nc21 | 10 | 12 | – | – |
| CC(C)n1cnc2c(N(C)CCc3ccc(O)c(O)c3)nc(NC[C@H](C)O)nc21 | 40 | 43 | 8 | – |
| CC(C)n1cnc2c(NC(CO)c3ccccc3)nc(NC[C@H](C)O)nc21 (some centres unmarked) | 5.6 | 8 | 27 | – |
| CC(C)n1cnc2c(NC(CO)c3ccccc3)nc(NCCO)nc21 (racemic) | 19 | 18 | 38 | IC50 (CDC2; Table 3): 1.4 µM |
| CC(C)n1cnc2c(NC(CO)c3ccccc3)nc(CCCCCC#N)nc21 (racemic) [P24, 2-(5-cyanopentyl)-6-[(R,S)-(1-phenyl-2-hydroxyethyl)amino]-9-isopropylpurine] | – | – | – | IC50 ([2]; 96 hours of culture): 42 ± 4.8 µM; IC50 [3]: 42.5 ± 6 µM; IC50 (CDC2; [5]): 6.3 µM; IC50 [4]: 33 ± 4.4 µM |
| CCCCCCNc1nc(NC(C)c2ccc(O)c(O)c2)c2ncn(C(C)C)c2n1 (centres unmarked) [P17] | – | – | – | IC50 ([2]; 96 hours of culture): 35.3 ± 5.7 µM; IC50 [3]: 24 ± 6.2 µM; IC50 (CDC2; [5]): 1 µM; IC50 [4]: 18 ± 2.8 µM |
| CC(Nc1nc(NCCCO)nc2c1ncn2C(C)C)c1ccc(O)c(O)c1 (centres unmarked) [P18] | – | – | – | IC50 ([2]; 96 hours of culture): 18.7 ± 0.3 µM; IC50 [3]: 23 ± 2.8 µM; IC50 (CDC2; [5]): 2.6 µM; IC50 [4]: 14.9 ± 2.9 µM |
| CC[C@H](CO)Nc1nc(NCc2ccc(O)cc2)c2ncn(C(C)C)c2n1 [P19] | – | – | – | IC50 ([2]; 96 hours of culture): 11 ± 1.3 µM; IC50 [3]: 15 ± 2 µM; IC50 [4]: 6 µM |
| CC(Nc1nc(NCCCO)nc2c1ncn2C(C)C)c1ccc(O)c(O)c1 (centres unmarked) [P20] | – | – | – | IC50 [4]: 35 ± 7.3 µM |
| Cn1cnc2c(NC(CO)c3ccccc3)nc(N3CCOCC3)nc21 (centres unmarked) [P21, 2-(morpholino)-6-(1-phenyl-2-hydroxyethylamino)-9-methylpurine] | – | – | – | IC50 ([2]; Homo sapiens, KG-1, 96 h): 48 ± 1.5 µM; IC50 ([3]; Homo sapiens, MOLT-3): 50 ± 1.3 µM; IC50 (CDC2; [5]): 6.5 µM; CC50 [4]: 40 ± 7.7 µM |
| CC(C)n1cnc2c(NC(CO)c3ccccc3)nc(SCCO)nc21 (centres unmarked) [P22, 2-(2-hydroxyethylthio)-6-(1-phenyl-2-hydroxyethylamino)-9-isopropylpurine] | – | – | – | IC50 ([2]; Homo sapiens, KG-1, 96 h): 13 ± 1.4 µM; IC50 ([3]; Homo sapiens, MOLT-3): 17 ± 1.7 µM; IC50 (CDC2; [5]): 3.8 µM; CC50 [4]: 11 ± 1.5 µM |
| CC(C)n1cnc2c(SCc3ccccc3)nc(NCCCO)nc21 [P25, 2-(3-hydroxypropylamino)-6-benzylthio-9-isopropylpurine] | – | – | – | IC50 ([2]; Homo sapiens, KG-1, 96 h): 42 ± 5 µM; IC50 ([3]; Homo sapiens, MOLT-3): 19 ± 2 µM; IC50 (CDC2; [5]): > 100 µM; CC50 [4]: 18 ± 1.6 µM |
| CC(C)n1cnc2c(NC(CO)c3ccccc3)nc(NCC(O)CO)nc21 [P26, 2-(2,3-dihydroxypropylamino)-6-[(R,S)-(1-phenyl-2-hydroxyethyl)amino]-9-isopropylpurine] | – | – | – | IC50 ([2]; Homo sapiens, KG-1, 96 h): 20 ± 1 µM; IC50 ([3]; Homo sapiens, MOLT-3): 23.7 ± 3.4 µM; IC50 (CDC2; [5]): > 100 µM; CC50 [4]: 20 ± 1 µM |

Source: US20030187261A1, “Purine derivatives, process for their preparation and use thereof” (priority 2000, published 2003)
